Laboratory results published in ChEMBL document CHEMBL1136756, “De novo design, synthesis, and evaluation of novel nonsteroidal phenanthrene ligands for the estrogen receptor” (J Med Chem, 2003).

What was measured:
[1] = molecular target: Estrogen receptor beta (Homo sapiens, UniProt Q92731)
Description: In vitro displacement of 0.5 nM [3H]17-beta-estradiol from human Estrogen receptor beta

[2] = molecular target: T1, Estrogen receptor (Homo sapiens, UniProt P03372)
T1 sequence (P03372 whole entry): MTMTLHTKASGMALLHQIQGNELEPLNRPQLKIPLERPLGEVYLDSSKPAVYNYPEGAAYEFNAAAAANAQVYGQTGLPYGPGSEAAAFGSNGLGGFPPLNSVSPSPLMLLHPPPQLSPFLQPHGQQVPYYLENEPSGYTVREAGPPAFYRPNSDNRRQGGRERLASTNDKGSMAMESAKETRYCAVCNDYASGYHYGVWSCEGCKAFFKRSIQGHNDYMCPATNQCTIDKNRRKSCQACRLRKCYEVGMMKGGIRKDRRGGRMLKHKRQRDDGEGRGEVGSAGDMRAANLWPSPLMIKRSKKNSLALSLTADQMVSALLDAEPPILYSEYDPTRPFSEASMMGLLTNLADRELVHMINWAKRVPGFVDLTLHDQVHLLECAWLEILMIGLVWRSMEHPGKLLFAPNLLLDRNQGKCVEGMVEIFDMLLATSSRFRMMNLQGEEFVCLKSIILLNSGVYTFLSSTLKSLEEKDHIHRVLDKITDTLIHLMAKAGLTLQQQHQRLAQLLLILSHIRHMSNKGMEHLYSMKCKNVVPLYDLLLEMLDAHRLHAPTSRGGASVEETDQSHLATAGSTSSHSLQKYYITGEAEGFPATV
Description: In vitro displacement of 0.5 nM [3H]17-beta-estradiol from human Estrogen receptor alpha

Estrogen receptor beta, sequence (Q92731 whole entry): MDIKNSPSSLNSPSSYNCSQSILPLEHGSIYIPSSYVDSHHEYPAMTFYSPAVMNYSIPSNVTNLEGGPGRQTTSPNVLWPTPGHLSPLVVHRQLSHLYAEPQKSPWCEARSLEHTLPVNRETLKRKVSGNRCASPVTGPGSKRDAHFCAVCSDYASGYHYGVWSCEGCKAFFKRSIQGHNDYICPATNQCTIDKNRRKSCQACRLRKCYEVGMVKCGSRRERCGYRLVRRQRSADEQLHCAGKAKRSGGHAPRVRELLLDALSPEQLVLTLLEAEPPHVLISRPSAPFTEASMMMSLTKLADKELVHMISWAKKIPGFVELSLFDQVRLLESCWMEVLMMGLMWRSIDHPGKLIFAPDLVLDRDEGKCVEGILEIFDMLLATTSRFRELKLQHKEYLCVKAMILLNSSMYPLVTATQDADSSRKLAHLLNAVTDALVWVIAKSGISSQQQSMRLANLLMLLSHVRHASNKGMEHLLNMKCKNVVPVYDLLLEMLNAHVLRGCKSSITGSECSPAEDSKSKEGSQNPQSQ

Compound | Ki [1] | Ki [2]
CC(=O)c1ccc2c(c1)c(-c1ccc(OCCN3CCCCC3)cc1)cc1cc(O)cc(C)c12 | 0.63 µM | > 1 µM
CCc1ccc2c(c1)C(c1ccc(OCCN3CCCCC3)cc1)Cc1cc(O)cc(C)c1-2 (stereo unspecified) | 0.19 µM | 0.00869 µM
C=C(C)c1ccc2c(c1)c(-c1ccc(OCCN3CCCCC3)cc1)cc1cc(O)cc(C)c12 | 0.18 µM | 0.29 µM
CC(C)=C(C)c1ccc2c(c1)c(-c1ccc(OCCN3CCCCC3)cc1)cc1cc(O)cc(C)c12 | 0.2 µM | 0.21 µM
Cc1cc(O)cc2cc(-c3ccc(OCCN4CCCCC4)cc3)c3cc(C(=O)C(C)C)ccc3c12 | > 1 µM | 0.49 µM
Cc1cc(O)cc2cc(-c3ccc(OCCN4CCCCC4)cc3)c3cc(C(C)O)ccc3c12 (stereo unspecified) | 0.19 µM | –
